One compound from patent US20170042849A1, “COMPOSITION FOR BRAIN IMPROVEMENT” (N.V. Nutricia, priority 2014, published 2017) can be followed below.

The subject of assay [1] is C3H/HeOuJ mice. In words: T maze spontaneous alternation spatial memory performance test. Type of assay: in vivo. Conditions: CMA sensitized mice. The protocol:
(§1) Pathogen-free, male C3H/HeOuJ mice (4 weeks old, Charles River Laboratories) mice were bred and raised on a cow's milk protein-free diet (Special Diet Services, Witham, UK) and housed on a 12 h light-dark cycle with access to food and water ad libitum. All animal procedures were conducted in accordance with the guidelines of the Dutch Committee of Animal Experiments. The mice were sensitized orally with 0.5 mL homogenized whey protein (40 mg/mL PBS) and cholera toxin (CT, 20 μg/mL PBS, Quadratech Diagnostics) as an adjuvant; sham-sensitized mice received CT alone. Mice were orally boosted once a week for 5 consecutive weeks. One week after the last sensitization, mice were challenged orally with 0.5 mL whey (100 mg/mL PBS). The mice were fed a control diet, or a diet supplemented with glutamine (5 wt %). At the end, the mice were subjected to social interaction and spatial memory tests. Cow's milk allergy is associated with disturbed social interaction and impaired spatial memory, and thus suited to study the effects of dietary intervention there. […] The percentage of alternation (number of turns in each goal arm) and total trial duration are recorded. This test is used to quantify cognitive deficits in transgenic strains of mice and evaluate novel chemical entities for their effects on cognition. […]

The subject of assay [2] is C3H/HeOuJ mice. As to the kind of experiment: Social interaction test in cow's milk allergy model mice and unsensitized mice. The class given is in vivo. The protocol: as §1, with “By using video tracking software (EthoVision 3.1.16, Noldus), an interaction zone around the cage was digitally determined. Time spent in the interaction zone as well as frequency” for “The percentage”, “entering the interaction zone over the selected time period was measured.” for “alternation (number of turns in each goal arm) and total trial duration are recorded. This test is used to quantify cognitive deficits in transgenic strains of mice and evaluate novel chemical entities for their effects on cognition.”

Consider `NC(=O)CC[C@H](N)C(=O)O` [glutamine, L-glutamine], for which the “% Alternation in spatial memory test” value in the assay with C3H/HeOuJ mice [1] (diet supplemented with glutamine (5 wt %), mean, s.e.) is reported as 66.7 +/− 6.4 (n = 12) %. For the same compound, the “Reduced alternation in the T-maze test vs control CMA-mice, in words” value with C3H/HeOuJ mice [1] (diet with supplementation of Gln) is given as “markedly improved”. The “Time spent in interaction zone” value with C3H/HeOuJ mice [2] (CMA sensitized mice, diet supplemented with glutamine (5 wt %), mean +/- s.e.) is given as 117 +/− 20.8 (n = 12) sec. Further, the “Time spent in the interaction zone” value in the assay with C3H/HeOuJ mice [2] (unsensitized mice fed the Gln diet) stood at 174 ± 19.1 s.
